The values that follow are results of earlier work, collected in patent US11576926B2, “Composition for use in the prevention and/or treatment of epistaxis” (priority 2018, dated 2023).

Data set [1] deals with Escherichia coli. To be noted: silver ions.
The subject of data set [2] is Staphylococcus aureus. Conditions: silver ions.
In data set [3] the test system is non-allergic and idiopathic rhinitis.
Data set [4] deals with corneal wounds in rat models with type 1 diabetes. Conditions: solution containing 0.3% HA.
Data set [5] relates to nasal mucosa after surgery in the nasal cavity.
For data set [6], the system named is fibroblast. To be noted: both in vitro and in vivo.
Data set [7] relates to ultraviolet-induced erythema. To be noted: in vivo.
For data set [8], the system named is epidermal wounds.
The subject of data set [9] is epithelial tissue in mouse models. Conditions: dexpanthenol cream; after 20 days; vs control group.
The test system of data set [10] is dry rhinitis. Conditions: 20 ml spray with 5% dexpanthenol; vs placebo.
For data set [11], the system named is rhinitis sicca syndrome. Conditions: nasal spray; 0.5% ectoin, or 0.5% ectoin and 1.0% dexpanthenol.
Data set [12] has as its system TPA (12-O-tetradecanoylphorbol-13-acetate) induced inflammatory response. Conditions: topical, 30 minutes before TPA.
Data set [13] deals with seasonal allergic rhinitis. To be noted: 800 mg/day in addition to the classic anti-allergy treatment; 112 patients.
The mark [14] stands for this setting: patients who received the therapy, 90 patients.

As for `[Ag]` [silver, Silver], the “antibacterial effect (structural changes, permeability, ion transport)” value in data set [1] was “eventually leading to death”. In addition, the “antibacterial effect (structural changes, permeability, ion transport)” value in data set [2] is on record as “eventually leading to death”. Moreover, in data set [3] (human, in vivo), the “improvement in the condition of the nasal epithelium, share of patients” value is “over 70%” and the “treatment effect compared to placebo” value is on record as “statistically significant compared to placebo”. In addition, in [3] (setting [14]), the “improvement in the nasal decongestion, share of cases” value is on record as 80% and the “improvement in the rhinorrhea, share of cases” value is recorded as 93%.

For Hyaluronic acid, the “re-epithelialization of corneal wounds” value in [4] was “statistically significant in enhancing re-epithelialization”. Also, in [5] (after the first week of treatment), the “formation of bloody scabs” value is listed as “prevented excessive formation of bloody scabs”. Further, in [5] (all trial participants), the tolerability entry is listed as “well tolerated”. Besides, in data set [5] (cream with 2 mg HA per g, 6-week treatment, vs ointments based on plant extracts, 56 patients), the “recovery (healing of the nasal mucosa)” value is “recover faster and more effectively than the ointment group”. Moreover, the adverse effects entry in data set [5] (during the trial) was “No adverse effects were reported”.

`CC(C)(CO)[C@@H](O)C(=O)NCCCO` [dexpanthenol, Dexpanthenol]: the fibroblast proliferation result in data set [6] is listed as “activate fibroblast proliferation”. In addition, the “effect on experimental ultraviolet-induced erythema” value in [7] was “anti-inflammatory effect”. For the same compound, in data set [8] (compared to placebo), the “epidermal regeneration (transepidermal water loss monitoring)” value is listed as “significant acceleration of epidermal regeneration”. For the same compound, the “erythema of epidermal wounds” value in data set [8] (dexpanthenol emulsion) is “reduction in erythema”. For the same compound, the “re-epithelialization in wound healing” value in [8] (monitored by transepidermal water loss) was “Accelerated re-epithelialization”. Also, in data set [9], the “regeneration rate of epithelial tissue” value was “statistically higher than the control group”. Besides, in data set [10], the “symptoms of rhinitis (scabs, nasal respiratory capacity)” value is “improving the symptoms of rhinitis”.

As for `CC1=NCC[C@@H](C(=O)O)N1` [ectoin], in [11], the “nasal obstruction, rhinorrhea and crusting” value is on record as “decreased significantly”; the “recurrent nose bleeding, pharyngitis, exudate viscosity during inflammatory phenomena and cacosmia” value is “this did not occur”.

As for Vitamin E, in data set [12], the “activity of myeloperoxidase (MPO)” value is “inhibits”, the “activity of xanthine oxidase (XO)” value is “inhibits”, the “lipid peroxidation (LPO)” value is recorded as “inhibits” and the “release of hydrogen peroxide” value is given as “inhibits”. For the same compound, the “nasal symptoms associated with allergic rhinitis” value in data set [13] was “reduction of the nasal symptoms”.
